pIC50: −log10 of the molar value.
What was measured:
[1] = tested on: ERK1/2(Thr202/Tyr204) phosphorylation (MEK-dependent) in A375 cells; experiment: Cellular Phospho-p44/42 MAPK (Erk1/2) (Thr202/Tyr204) Assay; type: cell-based; settings: Homo sapiens, A-375, 1-hour incubation, pERK1/2 (Thr202/Tyr204) In-Cell Western normalized to GAPDH
Procedure: Inhibition of ERK1/2(Thr202/Tyr204) phosphorylation was determined by the following cellular assay, which comprises incubating cells with a compound for 1 hour and quantifying pERK signal by In-Cell Western on fixed cells and normalizing to GAPDH signal. A375 cells were obtained from the ATCC and grown in DMEM supplemented with 10% fetal bovine serum, penicillin/streptomycin, Glutamax®, non-essential amino acids, and sodium pyruvate. Cells were plated in 96-well plates at 30,000 cells/well and allowed to attach overnight at 37° C./5% CO2. Cells were treated with compounds prepared as a 10-point, 1:3 dilution series (range: 20 μM-0.05 nM; maximum concentration varied from 20 μM-1 μM), with a final DMSO concentration of 0.5%. Control wells contained either 0.5% DMSO alone (no inhibition control) or 1 μM of a potent control compound (complete inhibition control). After a 1-hour incubation, cells were fixed in 3.7% formaldehyde in dPBS (Dulbecco's phosphate-buffered saline) at room temperature for 20 minutes. Cells were then washed with dPBS and permeabilized in 100% MeOH at room temperature for 10 minutes. Following permeabilization, cells were washed in dPBS and incubated in LI-COR Blocking Buffer (LI-COR Biosciences, Cat #927-40000) for 1 hour or longer. Plates were then incubated with an antibody specific for the MEK-dependent ERK1/2 phosphorylation sites, threonine 202 and tyrosine 204 (Cell Signaling Technologies; Cat #9101), downstream of MEK in the MAP kinase signal transduction pathway, as well as GAPDH (Millipore; Cat #MAB374). pErk1/2 (Thr202/Tyr204) antibody was diluted in LI-COR blocking buffer containing 0.05% Tween-20 at 1:250; GAPDH was diluted at 1:2,500. The plates were incubated overnight at 4° C. After washing with PBS/0.05% Tween-20, the cells were incubated with fluorescently-labeled secondary antibodies (Anti-rabbit-Alexa Flour680, Invitrogen Cat #A21109; Anti-mouse-IRDye800CW, LI-COR Biosciences Cat #926-32210, both at 1:1000 dilution) for 1 hour. Cells were then washed, as above, and analyzed for fluorescence at both 680 and 800 nm wavelengths using the Odyssey CLx Infrared Imaging System (LI-COR Biosciences). Phosphorylated Erk1/2 (Thr202/Tyr204) signal was normalized to GAPDH signal for each well.

[2] = MDR1 LLC-PK1 and BCRP MDCKII Permeability Assay: permeability coefficient (Papp); type: in vitro ADME; settings: MDCK, test article 1 μM, 37° C.
Procedure: (§1) Both LLC-PK1 and MDR1 transfected LLC-PK1 cells were cultured and plated according to manufacturer's recommendations with the exception that the passage media contained only 2% fetal bovine serum to extend passage time out to seven days.
(§2) BCRP transfected MDCKII canine P-gp knockout cell line was cultured and plated according to manufacturer's recommendations.
(§3) Both positive and negative controls were used to assess functionality of P-gp or BCRP efflux in the assays. Stock solutions for assay controls and the test article were prepared in DMSO for final test concentrations of 10 and 1 μM, respectively. Final organic concentration in the assay was 1%. All dosing solutions contained 10 μM lucifer yellow to monitor LLC-PK1 or MDCKII cell monolayer integrity.
(§4) For the apical to basolateral determination (A to B), 75 μL of the test article in transport buffer were added to the apical side of the individual transwells and 250 μL of basolateral media, without compound or lucifer yellow, were added to each well. For the basolateral to apical determination (B to A), 250 μL of test article in transport buffer were added to each well and 75 μL transport buffer, without compound or lucifer yellow, were added to each transwell. All tests were performed in triplicate, and each compound was tested for both apical to basolateral and basolateral to apical transport. The plates were incubated for 2 hours on a Lab-Line Instruments Titer Orbital Shaker (VWR, West Chester, PA) at 50 rpm and 37° C. with 5% CO2. All culture plates were removed from the incubator and 50 μL of media were removed from the apical and basolateral portion of each well and added to 150 μL of 1 μM labetalol in 2:1 acetonitrile (acetonitrile): H2O, v/v.
(§5) The plates were read using a Molecular Devices (Sunnyvale, CA) Gemini Fluorometer to evaluate the lucifer yellow concentrations at excitation/emission wavelengths of 425/535 nm. These values were accepted when found to be below 2% for apical to basolateral and 5% basolateral to apical flux across the MDR1-transfected LLC-PK1 or BCRP-transfected MDCKII cell monolayers. The plates were sealed and the contents of each well analyzed by LC-MS/MS. The compound concentrations were determined from the ratio of the peak areas of the compound to the internal standard (labetalol) in comparison to the dosing solution.
(§6) The LC-MS/MS system was comprised of an HTS-PAL autosampler (Leap Technologies, Carrboro, NC), an HP1200 HPLC (Agilent, Palo Alto, CA), and a MDS Sciex 4000 Q Trap system (Applied Biosystems, Foster City, CA). […] The total run time, including re-equilibration, for a single injection was 1.2 minutes. Mass spectrometric detection of the analytes was accomplished using the ion spray positive mode. Analyte responses were measured by multiple reaction monitoring (MRM) of transitions unique to each compound (the protonated precursor ion and selected product ions for each test article and m/z 329 to m/z 162 for labetalol, the internal standard).

P-gp (MDR1) = biological target: T1, P-gp (MDR1) (Homo sapiens, UniProt P08183); experiment: Efflux ratio in MDR1 transfected LLC-PK1 cells; type: in vitro ADME; settings: pig, Papp(B−A)/Papp(A−B)
T1 construct: expressed in transfected cells; host or cells: LLC-PK1 (porcine kidney) cells transfected with MDR1
Procedure: as §1, §3, §4, §5, §6
(§7) An efflux ratio is calculated from the mean apical to basolateral (A−B) Papp data and basolateral to apical (B−A) Papp data: Efflux ratio=Papp(B−A)/Papp(A−B)

BCRP (hBCRP) = biological target: T2, BCRP (hBCRP) (Homo sapiens, UniProt Q9UNQ0); experiment: Efflux ratio in BCRP transfected MDCKII canine P-gp knockout cells; type: in vitro ADME; settings: Papp(B−A)/Papp(A−B), read-out: Efflux ratio MDCKII-hBCRP knock-in,canine pg-P KO
T2 construct: expressed in transfected cells; host or cells: MDCKII (canine kidney) cells, canine P-gp knockout, transfected with BCRP
T2 sequence (Q9UNQ0 1-655): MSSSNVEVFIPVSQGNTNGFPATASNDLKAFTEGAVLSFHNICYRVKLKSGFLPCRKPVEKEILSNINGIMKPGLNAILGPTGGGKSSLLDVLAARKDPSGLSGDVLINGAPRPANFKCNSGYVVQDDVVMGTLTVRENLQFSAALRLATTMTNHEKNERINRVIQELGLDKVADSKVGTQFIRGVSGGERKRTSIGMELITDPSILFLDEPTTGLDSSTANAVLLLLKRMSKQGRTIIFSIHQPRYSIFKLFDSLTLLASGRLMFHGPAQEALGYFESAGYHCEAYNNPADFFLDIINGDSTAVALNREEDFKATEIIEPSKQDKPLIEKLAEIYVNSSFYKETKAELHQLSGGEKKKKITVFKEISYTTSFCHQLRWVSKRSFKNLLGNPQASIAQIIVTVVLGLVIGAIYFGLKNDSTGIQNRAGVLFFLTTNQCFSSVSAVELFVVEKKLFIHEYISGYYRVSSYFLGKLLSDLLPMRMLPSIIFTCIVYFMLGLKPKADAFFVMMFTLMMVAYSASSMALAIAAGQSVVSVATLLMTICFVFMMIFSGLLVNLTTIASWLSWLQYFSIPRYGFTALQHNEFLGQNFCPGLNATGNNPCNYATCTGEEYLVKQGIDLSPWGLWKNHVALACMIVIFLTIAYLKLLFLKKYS
Procedure: as §2, §3, §4, §5, §6, §7

T1 sequence (P08183 whole entry): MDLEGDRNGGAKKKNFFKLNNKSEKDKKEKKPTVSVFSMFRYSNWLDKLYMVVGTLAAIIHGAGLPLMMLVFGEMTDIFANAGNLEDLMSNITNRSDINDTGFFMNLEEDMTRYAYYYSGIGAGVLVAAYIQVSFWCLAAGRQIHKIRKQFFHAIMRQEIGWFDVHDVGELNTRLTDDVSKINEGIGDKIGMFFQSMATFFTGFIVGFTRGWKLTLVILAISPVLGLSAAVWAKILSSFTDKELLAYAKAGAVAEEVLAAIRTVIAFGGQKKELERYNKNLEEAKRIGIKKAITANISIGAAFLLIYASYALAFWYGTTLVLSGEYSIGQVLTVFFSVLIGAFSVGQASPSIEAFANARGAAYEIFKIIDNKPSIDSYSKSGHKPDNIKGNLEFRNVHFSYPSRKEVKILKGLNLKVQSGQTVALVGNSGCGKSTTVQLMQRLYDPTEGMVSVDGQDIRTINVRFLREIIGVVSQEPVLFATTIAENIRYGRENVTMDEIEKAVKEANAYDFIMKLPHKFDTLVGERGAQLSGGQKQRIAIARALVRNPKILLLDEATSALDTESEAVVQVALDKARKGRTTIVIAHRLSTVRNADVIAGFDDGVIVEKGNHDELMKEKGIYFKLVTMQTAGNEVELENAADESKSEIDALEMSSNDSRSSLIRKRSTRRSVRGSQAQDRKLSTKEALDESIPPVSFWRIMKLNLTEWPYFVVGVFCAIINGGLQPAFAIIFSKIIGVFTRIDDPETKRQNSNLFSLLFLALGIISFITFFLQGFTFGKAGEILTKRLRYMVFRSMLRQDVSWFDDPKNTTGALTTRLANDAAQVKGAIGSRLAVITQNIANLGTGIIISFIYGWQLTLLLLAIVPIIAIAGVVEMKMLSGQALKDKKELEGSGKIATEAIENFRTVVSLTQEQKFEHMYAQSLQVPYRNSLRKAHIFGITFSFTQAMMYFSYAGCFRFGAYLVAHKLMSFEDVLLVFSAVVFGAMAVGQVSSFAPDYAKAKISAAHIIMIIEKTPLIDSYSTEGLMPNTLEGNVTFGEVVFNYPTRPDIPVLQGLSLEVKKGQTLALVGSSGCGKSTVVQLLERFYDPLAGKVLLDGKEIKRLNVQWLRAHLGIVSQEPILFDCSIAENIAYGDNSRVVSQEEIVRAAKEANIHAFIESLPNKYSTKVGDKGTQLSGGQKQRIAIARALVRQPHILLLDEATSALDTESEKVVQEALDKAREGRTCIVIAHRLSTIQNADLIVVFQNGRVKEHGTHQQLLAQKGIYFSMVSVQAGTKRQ

Compound	pIC50 [1]	Papp at 2 h, 1 μM [2] [×10⁻⁶ cm/s]	efflux ratio at 2 h, 1 μM (P-gp (MDR1))	efflux ratio at 2 h, 1 μM (BCRP (hBCRP))
Cn1c(Nc2ccc(Br)cc2Cl)c2c(cc1=O)CCN(OCCO)C2=O [Example 10, 8-((4-bromo-2-chlorophenyl)amino)-2-(2-hydroxyethoxy)-7-methyl-3,4-dihydro-2,7-naphthyridine-1,6(2H,7H)-dione]	7.24	26.5	6.7	6.3
Cn1c(Nc2ccc(C3CC3)cc2F)c2c(cc1=O)CCN(OCCO)C2=O [Example 15, 8-((4-cyclopropyl-2-fluorophenyl)amino)-2-(2-hydroxyethoxy)-7-methyl-3,4-dihydro-2,7-naphthyridine-1,6(2H,7H)-dione]	7.77	27.5	3.7	2.2
Cn1c(Nc2ccc(C3CC3)cc2Cl)c2c(cc1=O)CCN(OCCO)C2=O [Example 19, 8-((2-chloro-4-cyclopropylphenyl)amino)-2-(2-hydroxyethoxy)-7-methyl-3,4-dihydro-2,7-naphthyridine-1,6(2H,7H)-dione]	7.54	25.9	3.3	1.5
CSc1ccc(Nc2c3c(cc(=O)n2C)CCN(OCCO)C3=O)c(Cl)c1 [Example 21, 8-((2-chloro-4-(methylthio)phenyl)amino)-2-(2-hydroxyethoxy)-7-methyl-3,4-dihydro-2,7-naphthyridine-1,6(2H,7H)-dione]	8.00	28.8	4.2	3
CCc1ccc(Nc2c3c(cc(=O)n2C)CCN(OCCO)C3=O)c(Cl)c1 [Example 23, 8-((2-chloro-4-ethylphenyl)amino)-2-(2-hydroxyethoxy)-7-methyl-3,4-dihydro-2,7-naphthyridine-1,6(2H,7H)-dione]	7.59	30.4	3.2	2
Cn1c(Nc2ccc(SC(F)F)cc2F)c2c(cc1=O)CCN(OCCO)C2=O [Example 25, 8-((4-((difluoromethyl)thio)-2-fluorophenyl)amino)-2-(2-hydroxyethoxy)-7-methyl-3,4-dihydro-2,7-naphthyridine-1,6(2H,7H)-dione]	8.52	26.4	5.7	14.1
CC(C)ON1CCc2cc(=O)n(C)c(Nc3ccc(I)cc3F)c2C1=O [Example 27, 8-((2-fluoro-4-iodophenyl)amino)-2-isopropoxy-7-methyl-3,4-dihydro-2,7-naphthyridine-1,6(2H,7H)-dione]	6.85	25.1	0.9	1.4
CCON1CCc2cc(=O)n(C)c(Nc3ccc(I)cc3F)c2C1=O [Example 28, 2-ethoxy-8-((2-fluoro-4-iodophenyl)amino)-7-methyl-3,4-dihydro-2,7-naphthyrdine-1,6(2H,7H)-dione]	7.59	26.1	1.1	1.1
CON1CCc2cc(=O)n(C)c(Nc3ccc(I)cc3F)c2C1=O [Example 29, 8-((2-fluoro-4-iodophenyl)amino)-2-methoxy-7-methyl-3,4-dihydro-2,7-naphthyridine-1,6(2H,7H)-dione]	7.77	32.8	1.5	1.1
C[C@H](O)CON1CCc2cc(=O)n(C)c(Nc3ccc(I)cc3F)c2C1=O [Example 31, (S)-8-((2-fluoro-4-iodophenyl)amino)-2-(2-hydroxypropoxy)-7-methyl-3,4-dihydro-2,7-naphthyridine-1,6(2H,7H)-dione]	9.00	24.8	5.3	4.4
C[C@@H](O)CON1CCc2cc(=O)n(C)c(Nc3ccc(I)cc3F)c2C1=O [Example 32, (R)-8-((2-fluoro-4-iodophenyl)amino)-2-(2-hydroxypropoxy)-7-methyl-3,4-dihydro-2,7-naphthyridine-1,6(2H,7H)-dione]	8.00	24.8	6.5	5.2
C[C@H](O)CON1CCc2cc(=O)n(C)c(Nc3ccc(Br)cc3F)c2C1=O [Example 33, (S)-8-((4-bromo-2-fluorophenyl)amino)-2-(2-hydroxypropoxy)-7-methyl-3,4-dihydro-2,7-naphthyridine-1,6(2H,7H)-dione]	7.72	24.7	4	8.3
Cn1c(Nc2ccc(Br)cc2F)c2c(c(Cl)c1=O)CCN(OCCO)C2=O [Example 37, 8-((4-bromo-2-fluorophenyl)amino)-5-chloro-2-(2-hydroxyethoxy)-7-methyl-3,4-dihydro-2,7-naphthyridine-1,6(2H,7H)-dione]	6.94	28.6	2.7	3.3

Reference: patent US11802127B2, “3,4-dihydro-2,7-naphthyridine-1,6(2H,7H)-diones as MEK inhibitors” (Pfizer Inc., priority 2021, dated 2023)
